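Following 48 hours of exposure in 96-well plates, responses at five concentrations were used to interpolate endpoints linearly. TGI is the concentration that stops growth completely.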
How the values were obtained:
Assay in all cases: NCI anticancer screen, dose series, 48 h
SF-539 CNS = tested on: SF-539 CNS
NCI-H522 lung = tested on: NCI-H522 lung
KM12 colon = tested on: KM12 colon
RXF 393 renal = tested on: RXF 393 renal
MDA-N = tested on: MDA-N
TK-10 renal = tested on: TK-10 renal
SNB-19 CNS = tested on: SNB-19 CNS
RPMI-8226 leukemia = tested on: RPMI-8226 leukemia
EKVX NSCLC = tested on: EKVX NSCLC
HCT-116 colon = tested on: HCT-116 colon
UACC-257 melanoma = tested on: UACC-257 melanoma
NCI/ADR-RES ovarian = tested on: NCI/ADR-RES ovarian
NCI-H460 lung = tested on: NCI-H460 lung
HCC-2998 colon = tested on: HCC-2998 colon
LOX IMVI melanoma = tested on: LOX IMVI melanoma
HCT-15 colon = tested on: HCT-15 colon
HS 578T breast = tested on: HS 578T breast
SK-OV-3 ovarian = tested on: SK-OV-3 ovarian
MOLT-4 leukemia = tested on: MOLT-4 leukemia
A549 NSCLC = tested on: A549 NSCLC
A498 renal = tested on: A498 renal
SK-MEL-28 melanoma = tested on: SK-MEL-28 melanoma
UACC-62 melanoma = tested on: UACC-62 melanoma
BT-549 breast = tested on: BT-549 breast
DU-145 prostate = tested on: DU-145 prostate
MDA-MB-435 = tested on: MDA-MB-435
U251 CNS = tested on: U251 CNS
OVCAR-8 ovarian = tested on: OVCAR-8 ovarian
NCI-H23 lung = tested on: NCI-H23 lung
M14 melanoma = tested on: M14 melanoma
OVCAR-4 ovarian = tested on: OVCAR-4 ovarian
K-562 leukemia = tested on: K-562 leukemia
CAKI-1 renal = tested on: CAKI-1 renal
T-47D breast = tested on: T-47D breast
HT29 colon = tested on: HT29 colon
HL-60(TB) leukemia = tested on: HL-60(TB) leukemia
OVCAR-3 ovarian = tested on: OVCAR-3 ovarian
SN12C renal = tested on: SN12C renal
ACHN renal = tested on: ACHN renal
OVCAR-5 ovarian = tested on: OVCAR-5 ovarian
SW-620 colon = tested on: SW-620 colon
786-0 renal = tested on: 786-0 renal
SK-MEL-5 melanoma = tested on: SK-MEL-5 melanoma
SK-MEL-2 melanoma = tested on: SK-MEL-2 melanoma
SF-295 CNS = tested on: SF-295 CNS
HOP-62 NSCLC = tested on: HOP-62 NSCLC
SF-268 CNS = tested on: SF-268 CNS
PC-3 prostate = tested on: PC-3 prostate
COLO 205 colon = tested on: COLO 205 colon
IGROV1 ovarian = tested on: IGROV1 ovarian
MALME-3M melanoma = tested on: MALME-3M melanoma
NCI-H226 lung = tested on: NCI-H226 lung
CCRF-CEM leukemia = tested on: CCRF-CEM leukemia
MCF7 breast = tested on: MCF7 breast
UO-31 renal = tested on: UO-31 renal
SR leukemia = tested on: SR leukemia
MDA-MB-231 breast = tested on: MDA-MB-231 breast
HOP-92 NSCLC = tested on: HOP-92 NSCLC
SNB-75 CNS = tested on: SNB-75 CNS

Measured: TGI

COC(=O)c1ccccc1C#CC#Cc1ccccc1C(=O)OC
3.28 µM: COLO 205 colon
7.91 µM: OVCAR-3 ovarian
8.25 µM: HL-60(TB) leukemia
not listed: HOP-92 NSCLC | SNB-75 CNS
> 10 µM: all other assays above

NC(=Nc1ccc(O)cc1)S(=O)(=O)O
not listed: RPMI-8226 leukemia | SK-MEL-28 melanoma
> 100 µM: all other assays above

O=C(CN1CCN(Cc2ccccc2)CC1)N1CCCn2c1nc1ccccc1c2=O
52.5 µM: HOP-92 NSCLC
not listed: RXF 393 renal | SK-MEL-28 melanoma
> 100 µM: all other assays above

CN(C)c1nc(NC23CC4CC(CC(C4)C2)C3)nc(N(C)C)n1
> 71.5 µM: MALME-3M melanoma
> 77.6 µM: NCI-H226 lung
41.2 µM: HCT-15 colon
> 63.3 µM: MCF7 breast
> 90.4 µM: HOP-62 NSCLC
> 40.1 µM: SNB-19 CNS
56 µM: HS 578T breast
63.1 µM: SK-MEL-2 melanoma
> 57.3 µM: MOLT-4 leukemia
> 39.4 µM: A549 NSCLC
12.7 µM: RPMI-8226 leukemia
13.5 µM: HL-60(TB) leukemia
> 42.2 µM: PC-3 prostate
17.7 µM: RXF 393 renal
> 49.6 µM: COLO 205 colon
> 85.4 µM: SN12C renal
> 55.2 µM: SNB-75 CNS
53.9 µM: SR leukemia
49.6 µM: T-47D breast
> 76.2 µM: OVCAR-3 ovarian
17.8 µM: LOX IMVI melanoma
> 56.2 µM: SW-620 colon
97.1 µM: HCC-2998 colon
> 33.3 µM: SF-295 CNS
7.84 µM: K-562 leukemia
> 89.5 µM: 786-0 renal
> 45.9 µM: MDA-N
> 57 µM: MDA-MB-231 breast
> 79.6 µM: SF-539 CNS
> 77.2 µM: UO-31 renal
24.8 µM: SK-MEL-5 melanoma
> 55.3 µM: U251 CNS
> 57.9 µM: M14 melanoma
> 57.1 µM: HCT-116 colon
82.2 µM: HOP-92 NSCLC
28.7 µM: CCRF-CEM leukemia
> 69.9 µM: SK-MEL-28 melanoma
> 76.1 µM: UACC-62 melanoma
not listed: NCI-H522 lung | IGROV1 ovarian
> 100 µM: all other assays above

Source: PubChem BioAssay (NCI)
